Measurements taken from patent US11795204B2 (Zealand Pharma A/S, priority 2012, dated 2023).
pEC50: −log10 of the molar value. Square brackets hold non-standard residues; d marks the D form. Peptide text beside a SMILES is read from it. Dab = NCC[C@H](N)C(=O)O; Dap = NC[C@H](N)C(=O)O; Aib = CC(C)(N)C(=O)O

How the values were obtained:
human Glucagon-R = biological target: T1, human Glucagon-R (Homo sapiens, UniProt P47871); assay: Glucagon receptor assay (cAMP induction, AlphaScreen); assay type: cell-based; conditions: HEK293 cells expressing the human Glucagon-R, 15 min at 37° C., read-out: GCG-R EC50 in vitro
T1 construct: expressed in transfected cells
T1 sequence (P47871 26-477): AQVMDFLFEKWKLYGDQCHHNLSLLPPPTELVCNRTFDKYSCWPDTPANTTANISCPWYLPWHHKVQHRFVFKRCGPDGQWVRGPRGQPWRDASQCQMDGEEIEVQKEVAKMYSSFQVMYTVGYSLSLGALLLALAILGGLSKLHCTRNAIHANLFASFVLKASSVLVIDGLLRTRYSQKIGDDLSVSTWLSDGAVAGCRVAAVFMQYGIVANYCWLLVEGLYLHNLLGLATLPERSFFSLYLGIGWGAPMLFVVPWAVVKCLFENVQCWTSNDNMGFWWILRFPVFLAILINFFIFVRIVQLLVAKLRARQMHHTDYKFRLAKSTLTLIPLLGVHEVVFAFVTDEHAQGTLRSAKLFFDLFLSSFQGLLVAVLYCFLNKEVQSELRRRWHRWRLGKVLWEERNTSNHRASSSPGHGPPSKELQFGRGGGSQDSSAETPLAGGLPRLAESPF
Procedure: The 5′-end primers additionally encoded a near-Kozak consensus sequence to ensure efficient translation. […] 48 hr after transfection, cells were seeded for limited dilution cloning and selected with 1 mg/ml G418 in the culture medium.
On the day of analysis, growth medium was removed and the cells were washed once with […] of the included Assay buffer with IBMX. Cells were incubated in […] Assay buffer/IBMX containing increasing concentrations of test peptides for 15 min at 37° C. Then the peptides/Assay buffer was removed and cells were lysed by addition of […] Lysis buffer pr. well and incubation for at least 10 min at room temperature. From each well […] cell lysate was transferred to a 384-well OptiPlate and mixed with Donor and Acceptor beads and incubated for 1 h at room temperature. The cAMP content was measured on an Envision plate reader.

physchem = conditions: pH 7.5
Procedure: A stock solution of the test peptide (2 mg/ml; determined by measurement of the absorption of the solution at 280 nm, and using the theoretical extension coefficient based on the content of tryptophan and tyrosine in the peptide) in demineralized water adjusted to pH 2.5 with HCl was prepared, and aliquots were diluted 1:1 in 100 mM acetate buffer (pH 4.0) and 100 mM phosphate buffer (pH 7.5), respectively, and loaded in a standard flat-bottom, non-sterile 96-well UV Microplate. The absorbance of samples (single samples, n=1) at 280 and 325 nm was measured in an absorbance-based plate reader, which was preheated to ambient temperature.

Compound | pEC50 (human Glucagon-R) | solubility (physchem)
H-HSQGTFTSDYSKYLDSARAESFVKWLEST-OH [Compound 1] | 10.19 | ≥ 1000 µg/mL
CC(C)C[C@H](NC(=O)[C@H](Cc1c[nH]c2ccccc12)NC(=O)[C@H](CCCCN)NC(=O)[C@@H](NC(=O)[C@H](Cc1ccccc1)NC(=O)[C@H](CO)NC(=O)[C@H](CCC(=O)O)NC(=O)[C@H](C)NC(=O)[C@H](CCCNC(=N)N)NC(=O)[C@H](C)NC(=O)C(C)(C)NC(=O)[C@H](CC(=O)O)NC(=O)[C@H](CC(C)C)NC(=O)[C@H](Cc1ccc(O)cc1)NC(=O)[C@H](CCCCN)NC(=O)[C@H](CO)NC(=O)[C@@H](NC(=O)[C@H](CC(=O)O)NC(=O)[C@H](CO)NC(=O)[C@@H](NC(=O)[C@H](Cc1ccccc1)NC(=O)[C@@H](NC(=O)CNC(=O)[C@H](CCC(N)=O)NC(=O)[C@H](CO)NC(=O)[C@@H](N)Cc1c[nH]cn1)[C@@H](C)O)[C@@H](C)O)C(C)C)C(C)C)C(=O)N[C@@H](CCC(=O)O)C(=O)N[C@@H](CO)C(=O)N[C@H](C(=O)O)[C@@H](C)O [Compound 23] (H-HSQGTFTSDVSKYLD[Aib]ARAESFVKWLEST-OH) | 9.80 | ≥ 1000 µg/mL
CC(C)C[C@H](NC(=O)[C@H](Cc1c[nH]c2ccccc12)NC(=O)[C@H](CCC(=O)O)NC(=O)[C@@H](NC(=O)[C@H](Cc1ccccc1)NC(=O)[C@H](CCCCN)NC(=O)[C@H](CCC(=O)O)NC(=O)[C@H](C)NC(=O)[C@H](CCCNC(=N)N)NC(=O)[C@H](C)NC(=O)C(C)(C)NC(=O)[C@H](CC(=O)O)NC(=O)[C@H](CC(C)C)NC(=O)[C@H](Cc1ccc(O)cc1)NC(=O)[C@H](CCCCN)NC(=O)[C@H](CO)NC(=O)[C@H](Cc1ccc(O)cc1)NC(=O)[C@H](CC(=O)O)NC(=O)[C@H](CO)NC(=O)[C@@H](NC(=O)[C@H](Cc1ccccc1)NC(=O)[C@@H](NC(=O)CNC(=O)[C@H](CCC(N)=O)NC(=O)[C@H](CO)NC(=O)[C@@H](N)Cc1c[nH]cn1)[C@@H](C)O)[C@@H](C)O)C(C)C)C(=O)N[C@@H](CCC(=O)O)C(=O)N[C@@H](CO)C(=O)N[C@H](C(=O)O)[C@@H](C)O [Compound 34] (H-HSQGTFTSDYSKYLD[Aib]ARAEKFVEWLEST-OH) | 10.55 | ≥ 1000 µg/mL
H-HSQGTFTSDYSKYLDSARAEDFVEWLEST-OH [Compound 6] | 9.00 | ≥ 1000 µg/mL
H-HSQGTFTSDYSKYLDSARAEDFVSWLEST-OH [Compound 10] | 9.49 | ≥ 1000 µg/mL
H-HSQGTFTSDYSKYLDSARAEEFVKWLEST-OH [Compound 9] | 10.52 | ≥ 1000 µg/mL
CC(=O)NC[C@H](NC(=O)[C@H](CO)NC(=O)[C@@H](N)Cc1c[nH]cn1)C(=O)NCC(=O)N[C@H](C(=O)N[C@@H](Cc1ccccc1)C(=O)N[C@H](C(=O)N[C@@H](CO)C(=O)N[C@@H](CC(=O)O)C(=O)N[C@@H](Cc1ccc(O)cc1)C(=O)N[C@@H](CO)C(=O)N[C@@H](CCCCN)C(=O)N[C@@H](Cc1ccc(O)cc1)C(=O)N[C@@H](CC(C)C)C(=O)N[C@@H](CC(=O)O)C(=O)NC(C)(C)C(=O)N[C@@H](C)C(=O)N[C@@H](CCCNC(=N)N)C(=O)N[C@@H](C)C(=O)N[C@@H](CCC(=O)O)C(=O)N[C@@H](CCC(=O)O)C(=O)N[C@@H](Cc1ccccc1)C(=O)N[C@H](C(=O)N[C@@H](CCCCN)C(=O)N[C@@H](Cc1c[nH]c2ccccc12)C(=O)N[C@@H](CC(C)C)C(=O)N[C@@H](CCC(=O)O)C(=O)N[C@@H](CO)C(=O)N[C@H](C(N)=O)[C@@H](C)O)C(C)C)[C@@H](C)O)[C@@H](C)O [Compound 41] (H-HS[Dap](Ac)GTFTSDYSKYLD[Aib]ARAEEFVKWLEST-NH2) | 11.42 | ≥ 1000 µg/mL
H-HSQGTFTSDYSKYLDEARAKSFVEWLEST-OH [Compound 28] | 10.46 | ≥ 1000 µg/mL
H-HSQGTFTSDYSKYLDVARAESFVKWLEST-OH [Compound 19] | 10.27 | ≥ 1000 µg/mL
H-HSQGTFTSDYSRYLESARAEDFVKWLEST-OH [Compound 7] | 9.03 | ≥ 1000 µg/mL
CC(C)C[C@H](NC(=O)[C@H](Cc1c[nH]c2ccccc12)NC(=O)[C@H](CCCCN)NC(=O)[C@@H](NC(=O)[C@H](Cc1ccccc1)NC(=O)[C@H](CO)NC(=O)[C@H](CCC(=O)O)NC(=O)[C@H](C)NC(=O)[C@H](CCCNC(=N)N)NC(=O)[C@H](C)NC(=O)C(C)(C)NC(=O)[C@H](CC(=O)O)NC(=O)[C@H](CC(C)C)NC(=O)[C@H](Cc1ccc(O)cc1)NC(=O)[C@H](CCCCN)NC(=O)[C@H](CO)NC(=O)[C@H](Cc1ccc(O)cc1)NC(=O)[C@H](CC(=O)O)NC(=O)[C@H](CO)NC(=O)[C@@H](NC(=O)[C@H](Cc1ccccc1)NC(=O)[C@@H](NC(=O)CNC(=O)[C@H](CCC(N)=O)NC(=O)[C@H](C)NC(=O)[C@@H](N)Cc1c[nH]cn1)[C@@H](C)O)[C@@H](C)O)C(C)C)C(=O)N[C@@H](CCC(=O)O)C(=O)N[C@@H](CO)C(=O)N[C@H](C(=O)O)[C@@H](C)O [Compound 20] (H-HAQGTFTSDYSKYLD[Aib]ARAESFVKWLEST-OH) | 9.62 | ≥ 1000 µg/mL
CC(C)C[C@H](NC(=O)[C@H](Cc1c[nH]c2ccccc12)NC(=O)[C@H](CO)NC(=O)[C@@H](NC(=O)[C@H](Cc1ccccc1)NC(=O)[C@H](CCC(=O)O)NC(=O)[C@H](CCC(=O)O)NC(=O)[C@H](C)NC(=O)[C@H](CCCNC(=N)N)NC(=O)[C@H](C)NC(=O)C(C)(C)NC(=O)[C@H](CC(=O)O)NC(=O)[C@H](CC(C)C)NC(=O)[C@H](Cc1ccc(O)cc1)NC(=O)[C@H](CCCCN)NC(=O)[C@H](CO)NC(=O)[C@H](Cc1ccc(O)cc1)NC(=O)[C@H](CC(=O)O)NC(=O)[C@H](CO)NC(=O)[C@@H](NC(=O)[C@H](Cc1ccccc1)NC(=O)[C@@H](NC(=O)CNC(=O)[C@H](CCC(N)=O)NC(=O)[C@H](CO)NC(=O)[C@@H](N)Cc1c[nH]cn1)[C@@H](C)O)[C@@H](C)O)C(C)C)C(=O)N[C@@H](CCC(=O)O)C(=O)N[C@@H](CCCCN)C(=O)N[C@H](C(=O)O)[C@@H](C)O [Compound 33] (H-HSQGTFTSDYSKYLD[Aib]ARAEEFVSWLEKT-OH) | 10.36 | ≥ 1000 µg/mL
CC(=O)NCC[C@H](NC(=O)[C@H](CO)NC(=O)[C@@H](N)Cc1c[nH]cn1)C(=O)NCC(=O)N[C@H](C(=O)N[C@@H](Cc1ccccc1)C(=O)N[C@H](C(=O)N[C@@H](CO)C(=O)N[C@@H](CC(=O)O)C(=O)N[C@@H](Cc1ccc(O)cc1)C(=O)N[C@@H](CO)C(=O)N[C@@H](CCCCN)C(=O)N[C@@H](Cc1ccc(O)cc1)C(=O)N[C@@H](CC(C)C)C(=O)N[C@@H](CC(=O)O)C(=O)NC(C)(C)C(=O)N[C@@H](C)C(=O)N[C@@H](CCCNC(=N)N)C(=O)N[C@@H](C)C(=O)N[C@@H](CCC(=O)O)C(=O)N[C@@H](CCC(=O)O)C(=O)N[C@@H](Cc1ccccc1)C(=O)N[C@H](C(=O)N[C@@H](CCCCN)C(=O)N[C@@H](Cc1c[nH]c2ccccc12)C(=O)N[C@@H](CC(C)C)C(=O)N[C@@H](CCC(=O)O)C(=O)N[C@@H](CO)C(=O)N[C@H](C(=O)O)[C@@H](C)O)C(C)C)[C@@H](C)O)[C@@H](C)O [Compound 39] (H-HS[Dab](Ac)GTFTSDYSKYLD[Aib]ARAEEFVKWLEST-OH) | 11.36 | ≥ 1000 µg/mL
CC(C)C[C@H](NC(=O)[C@H](Cc1c[nH]c2ccccc12)NC(=O)[C@H](C)NC(=O)[C@@H](NC(=O)[C@H](Cc1ccccc1)NC(=O)[C@H](CCC(=O)O)NC(=O)[C@H](CCC(=O)O)NC(=O)[C@H](C)NC(=O)[C@H](CCCNC(=N)N)NC(=O)[C@H](C)NC(=O)C(C)(C)NC(=O)[C@H](CC(=O)O)NC(=O)[C@H](CC(C)C)NC(=O)[C@H](Cc1ccc(O)cc1)NC(=O)[C@H](CCCCN)NC(=O)[C@H](CO)NC(=O)[C@H](Cc1ccc(O)cc1)NC(=O)[C@H](CC(=O)O)NC(=O)[C@H](CO)NC(=O)[C@@H](NC(=O)[C@H](Cc1ccccc1)NC(=O)[C@@H](NC(=O)CNC(=O)[C@H](CCC(N)=O)NC(=O)[C@H](CO)NC(=O)[C@@H](N)Cc1c[nH]cn1)[C@@H](C)O)[C@@H](C)O)C(C)C)C(=O)N[C@@H](CCC(=O)O)C(=O)N[C@@H](CO)C(=O)N[C@H](C(=O)O)[C@@H](C)O [Compound 35] (H-HSQGTFTSDYSKYLD[Aib]ARAEEFVAWLEST-OH) | 10.85 | ≥ 1000 µg/mL
CC(C)C[C@H](NC(=O)[C@H](Cc1c[nH]c2ccccc12)NC(=O)[C@H](CCCCN)NC(=O)[C@@H](NC(=O)[C@H](Cc1ccccc1)NC(=O)[C@H](CCC(=O)O)NC(=O)[C@H](CCC(=O)O)NC(=O)[C@H](C)NC(=O)[C@H](CCCNC(=N)N)NC(=O)[C@H](C)NC(=O)C(C)(C)NC(=O)[C@H](CCC(=O)O)NC(=O)[C@H](CC(C)C)NC(=O)[C@H](Cc1ccc(O)cc1)NC(=O)[C@H](CCCCN)NC(=O)[C@H](CO)NC(=O)[C@H](Cc1ccc(O)cc1)NC(=O)[C@H](CC(=O)O)NC(=O)[C@H](CO)NC(=O)[C@@H](NC(=O)[C@H](Cc1ccccc1)NC(=O)[C@@H](NC(=O)CNC(=O)[C@H](CCC(N)=O)NC(=O)[C@H](CO)NC(=O)[C@@H](N)Cc1c[nH]cn1)[C@@H](C)O)[C@@H](C)O)C(C)C)C(=O)N[C@@H](CCC(=O)O)C(=O)N[C@@H](CO)C(=O)N[C@H](C(=O)O)[C@@H](C)O [Compound 37] (H-HSQGTFTSDYSKYLE[Aib]ARAEEFVKWLEST-OH) | 10.03 | ≥ 1000 µg/mL
